# From patent publication US9683231B2, “RNAi-based method of drug screening and characterization” (Massachusetts Institute of Technology, priority 2010, dated 2017)
# Like-named read-outs stand apart in the source and are kept apart here.
# Columns and labels:
# [1] = test system: lymphoma cells expressing shATM, shChk2 or shp53; assay: shATM-Chk2-p53 resistance signature; format: cell-based, mouse
# Protocol: (3d) A comparison of the shTopoI and shTopoII response signatures for APG and NSC3852 with response signatures derived from established Topol (CPT and CPT11) and TopoII poisons (Dox, Mito and VP-16). […] In each case, one million cells were plated before treatment.
# Eμ-Mycp19^Arf−/− cells were counted and seeded at 1 million cells per ml in 48-well plates and treated with various concentrations of drugs. To approximate therapeutic situations in which drug dose decreases over time, half of the volume from each experiment was removed and replenished with fresh medium every 24 h. Cells were analyzed by fluorescence-activated cell sorting (FACS), with propidium iodide as a viability marker. LD80-90 of drugs are defined as concentrations at which the lowest viability reading out of three FACS time points (24, 48 and 72 h) is between 10% and 20%. After drug dose was determined, Eμ-Mycp19^Arf−/− cells were infected with retroviruses encoding shRNAs targeting particular genes. Individual infected cell populations were counted and seeded at 1 million cells per ml in 48-well plates and treated with drugs using the aforementioned protocol. At 72 h, treated and untreated cells were analyzed by flow cytometry. GFP percentages of live (PI-negative) cells were recorded and used to calculate relative resistance index.
# To compare the relative level of chemoresistance and sensitization conferred by each gene knockdown, the concept of RI (see definition above) was introduced, to more accurately analyze the GFP competition results. The value of RI is defined as X. The biological meaning of this factor X is that in a mixture of uninfected and infected (knockdown) cells, the infected (knockdown) cells will be X-fold as likely to survive drug treatment when compared to uninfected cells. By this definition of X, if one out of n uninfected cells survives a drug treatment, then X our of n infected cells should survive. If the total number of uninfected and infected cells are defined as T and the GFP percentage of untreated population are defined as G1, then the number of surviving, uninfected cells (un) can be defined as n−un=T×(1−G1)×1/n, and the number of surviving, infected cells (in) can be defined as n−in=Tx G1×X/n. […] From this equation, it can be derived that X=(G2−G1×G2)/(G1−G1×G2). This equation was used in the studies to compute RI values.
# [2] = test system: Eμ-Mycp19^Arf−/− mouse lymphoma cells; assay: Drug treatment and FACS viability (propidium iodide) to determine LD80-90; format: cell-based; conditions: for IC (80-90): Mus musculus, read-out: Concentration used (LD80-90)
# [3] = test system: cells expressing shTopoI or shTopoII; assay: shTopoI and shTopoII response signatures; format: cell-based, mouse; conditions: FIG. 3d
# γ-H2AX = assay: DNA damage response by western blot (γ-H2AX phosphorylation) in TopoI and TopoII knockdown cells; format: cell-based
# [4] = test system: shTopoII, shTopoI or vector control-expressing cells; assay: Long-term survival assay, surviving cells 12 days after drug treatment; format: cell-based
# Excerpt: Identification and functional characterization of ill-defined genotoxic drugs. […] (3b) The shATM-Chk2-p53 response signature for apigenin (APG) and NSC3852 (NSC). (3c) The branching pattern for the 18 reference compounds plus APG and NSC. APG clusters with the TopoII poisons Dox and VP-16, whereas NSC clusters with the Topol poison CPT. (3d) A comparison of the shTopoI and shTopoII response signatures for APG and NSC3852 with response signatures derived from established Topol (CPT and CPT11) and TopoII poisons (Dox, Mito and VP-16). […] In each case, one million cells were plated before treatment. Data shown are mean±s.e.m. from three Independent experiments.
# [5] = test system: Eμ-Mycp19^Arf−/− lymphoma cells expressing shRNAs targeting the Bcl2 family, p53 and its activating kinases; assay: 29-shRNA GFP competition assay, resistance index (RI), clustering and K-nearest-neighbors; format: cell-based, mouse
# Bim = Bim expression level by western blot; format: cell-based, mouse; conditions: lymphoma cells treated for 6 or 9 hours
# Protocol: 9b, Lymphoma cells were treated with SAHA or DAC for 6 or 9 hours. Bim expression level was analyzed by western blot.
# [6] = suppression of ATM, Chk2 and p53
# [7] = concentration at which 80-90% of uninfected lymphoma cells were killed, lowest viability of 24, 48 and 72 h between 10% and 20%
# [8] = shRNA targeting Bim (Bim-dependence)
# [9] = shRNA targeting p53 (p53-independence)
smiles,measurement,setting,value
N.N.[Cl][Pt][Cl] [Cisplatin],shATM-Chk2-p53 resistance signature,[1]; [6],significant resistance
same,Concentration used (LD80-90),[2]; [7],3.3 µM
COc1cccc2c1C(=O)c1c(O)c3c(c(O)c1C2=O)C[C@@](O)(C(=O)CO)C[C@@H]3O[C@H]1C[C@H](N)[C@H](O)[C@H](C)O1 [Doxorubicin],shATM-Chk2-p53 resistance signature,[1],significant resistance
same,IC (80-90),[2]; [7],0.0162 µM
O=c1cc(-c2ccc(O)cc2)oc2cc(O)cc(O)c12 [Apigenin],shTopoI and shTopoII resistance and sensitivity pattern,[3],shTopoII resistance and shTopoI sensitivity
same,induction of DNA damage,γ-H2AX; TopoII-deficient cells,failed to induce DNA damage
same,long-term survival,[4]; TopoII deficiency,significant protection
same,shATM-Chk2-p53 resistance signature,[1]; [6],strong shATM-Chk2-p53 resistance signature
same,IC (80-90),[2]; [7],0.1 µM
CC[C@@]1(O)C(=O)OCc2c1cc1n(c2=O)Cc2cc3ccccc3nc2-1 [Camptothecin],shATM-Chk2-p53 resistance signature,[1]; [6],significant resistance
same,IC (80-90),[2],0.0004 µM
Nc1ncn([C@H]2C[C@H](O)[C@@H](CO)O2)c(=O)n1 [Decitabine],log2RI,[5]; [8],≈ 2
same,log2RI,[5]; [9],≈ 0
same,IC (80-90),[2]; [7],0.6 µM
O=Nc1ccc(O)c2ncccc12 [NSC3852],shTopoI and shTopoII resistance and sensitivity pattern,[3],"characteristic pattern of resistance, similar to established TopoI poisons camptothecin and irinotecan"
same,induction of DNA damage,γ-H2AX; TopoI-deficient cells,failed to induce DNA damage
same,long-term survival,[4]; TopoI deficiency,significantly protected
same,shATM-Chk2-p53 resistance signature,[1]; [6],strong shATM-Chk2-p53 resistance signature
same,Concentration used (LD80-90),[2]; [7],1.7 µM
"O=C(CCCCCCC(=O)Nc1ccccc1)NO [Vorinostat, suberoylanilide hydroxamic acid]",levels of the proapoptotic BH3-only protein Bim,Bim,increase
same,log2RI,[5]; [8],≈ 2
same,effect of suppression of the Bim transcription regulator Chop on drug response,"[5]; shRNA targeting Chop, FIG. 1d",resistance
same,log2RI,[5]; [9],≈ 0
same,IC (80-90),[2]; [7],0.2 µM
O=C(O)CCCc1ccc(N(CCCl)CCCl)cc1 [Chlorambucil],shATM-Chk2-p53 resistance signature,[1]; [6],significant resistance
same,IC (80-90),[2],6.6 µM
